Source: patent US20240350647A1, “STING SENSITIZING AGENTS” (STipe Therapeutics ApS, priority 2023, published 2024)
Entries after “also recorded” stand apart in the source; their conditions may differ. Where a SMILES comes first, the peptide text is derived from it. Bridges are numbered along the chain shown (N, C = ends). [ ]: non-standard residue; d: D form. The star is where a group is joined. C16 diacid = O=C(O)CCCCCCCCCCCCCCC(=O)*; AEEA = NCCOCCOCC(=O)O

What was measured:
[1] = test system: CD4+ T cells; test: Dendritic Cell-T cell (DC-T) proliferation assay (ProImmune); details: 22 donors; Percentage Stimulation above Background ≥0.5%, SEM=2; peptides 0.34 μM
Description: A panel of peripheral blood mononuclear cell (PBMC) samples from healthy human donors was selected from the ProImmune Ltd (UK) cell bank. Each PBMC sample was HLA (Human Leukocyte Antigen)-typed and stored in liquid nitrogen (vapor-phase) prior to use. The panel was selected so that HLA class II alleles known to be highly expressed in the global population were well represented (data not shown). Donors were predominantly selected by DRB1 allele expression.
A Dendritic Cell-T cell (DC-T) proliferation assay (ProImmune Ltd) was used to identify the presence or potential T cell epitopes within the peptides. Adherent donor PBMCs were cultured with appropriate growth factors to generate monocyte-derived DCs. DCs were then loaded with a control (control 1 and control 2), the peptide (Agent 1, Agent 2, and Agent 3, see FIG. 8A) or left untreated. The peptides were loaded at a final concentration of 0.34 μM.
Mature antigen-loaded DCs were then co-cultured at a fixed ratio with autologous CFSE-labelled T cells in multi-well plates. Each test condition was set up in eight replicate wells and cells were incubated for 7 days. At the end of the incubation period, cell samples were stained with anti-CD4 antibody, then washed and fixed for by flow cytometric analysis. Proliferation was determined by measuring a decrease in CFSE intensity.
Data were compiled to determine antigen-induced proliferation per individual donor, calculated as Percentage Stimulation above Background. The frequency of positive donor cell responses (Percentage Antigenicity) was calculated as the proportion of responding donors out of total donors. Values were then standardized against the strength of response (an average of the Percentage Stimulation value obtained across accepted donors for each protein) to give a response index (RI).
Data obtained by flow cytometric evaluation of cell samples was analyzed using FlowJo Software (Tree Star, Inc.). The number of CFSE-dim (i.e., proliferating) cells was determined for each sample in eight replicate wells. Counts for the CD4^+ CFSE dim population in each sample were expressed as a proportion of the total CD4^+ population. The eight replicate values were then used to calculate Percentage Stimulation above Background (proportion of CD4^+ CFSE dim cells with antigen stimulation minus the proportion of CD4^+ CFSE dim cells without antigen stimulation).
Background threshold values are based on data from unstimulated cells for which a maximum acceptable resting proliferation threshold is established.
In evaluating antigenicity, it is also appropriate to take account of the frequency of donor cell responses across the study cohort. A positive response (Percentage Stimulation above Background ≥0.5%) in 2 or more independent donor samples is considered indicative of a potential T cell epitope.
Depending on the size of the study, (20, 40 or 50 donors), two responding donors sets a threshold of 10%, 5% or 4% respectively. Thus, following calculation of Percentage Stimulation above Background, the frequency of positive donor cell responses (Percentage Antigenicity) is expressed as the proportion of responding donors out of total accepted donors screened.
When calculating the antigenicity of a protein it is important to consider the strength of a response as well as the frequency of that response. This is because some binding responses may be pan-allele, but these responses may not be very strong. The strength of positive donor cell responses was determined by taking an average of the percentage stimulation value obtained across accepted donors for each protein. Determining a Response Index (RI) through the multiplication of strength and frequency values is more representative of the level of antigenicity.

[2] = In vitro metabolic stability in fresh blood; format: in vitro ADME; details: 37° C.; mouse, rat and human blood
Method: Fresh blood from mouse (CD-1) and rat (Wistar) was collected from lab animals. Human blood was collected from healthy donors at local hospital or acquired from commercial vendor (BioIVT). Blood from non-human primates (Cynomolgus macaque) was acquired from commercial vendor (BioTVT).
For mouse, rat and human blood, 5.0 μg/mL of tested agent (except Agent 1 in human blood) was diluted from stock solution in DMSO to a final DMSO concentration of 0.5% and incubated in 1000 μL of blood at 37° C., in duplicate. At 0, 5, 15, 30, and 60 minutes, 180 μL was sampled and centrifuged at 2000 g for 1 min, 80 μL supernatant was taken and diluted 1:1 with water followed by precipitation with acetonitrile containing 5% TFA (internal standard 100 nM leucine enkephalin+Glu1 fibrinopeptide B). The obtained supernatant 60 μL was further diluted with 30 μL 20% DMSO in ultra-pure water and submitted for immediate analysis by LC-MS/MS. The controls were 1 μM propantheline bromide (mouse, human) or 1 μM enalapril (rat).
Incubation of Agent 1 in blood from human and monkey was performed in a similar manner. A 25 μM solution of Agent 1 was prepared with 5% DMSO and 22.5% methanol in water. […]
The peak areas were determined against a calibration curve and the T0 sample was set to 100%. The disappearance rate (k) was calculated and the half-life for each incubation was determined (t½=ln 2/k).

## CC[C@H](C)[C@H](NC(=O)[C@H](CC(N)=O)NC(=O)[C@H](CCCCN)NC(=O)[C@H](C)NC(=O)[C@H](CCCCN)NC(=O)[C@H](CCCCN)NC(=O)COCCOCCNC(=O)COCCOCCNC(=O)CCCCCCCCCCCCCCC(=O)O)C(=O)N[C@H](C(=O)N[C@@H](CC(C)C)C(=O)N[C@@H](CC(C)C)C(=O)N[C@@H](CCCCN)C(=O)NCC(=O)N[C@@H](CC(C)C)C(=O)N[C@@H](CCC(=O)O)C(=O)N[C@H](C(=O)N[C@H](C(=O)N[C@@H](CC(N)=O)C(=O)N[C@@H](CC(=O)O)C(=O)N[C@@H](Cc1c[nH]c2ccccc12)C(=O)N[C@@H](Cc1c[nH]cn1)C(=O)N[C@@H](Cc1ccccc1)C(=O)N[C@H]1CSSC[C@@H](C(N)=O)NC(=O)[C@@H](CCCNC(=N)N)NC(=O)[C@H](CCCNC(=N)N)NC(=O)[C@@H](CCCCN)NC(=O)[C@H](CCCCN)NC(=O)[C@@H](CCCNC(=N)N)NC(=O)CNC(=O)[C@@H](CCCNC(=N)N)NC(=O)[C@H](CCCNC(=N)N)NC(=O)[C@@H](CCCNC(=N)N)NC1=O)[C@@H](C)CC)C(C)C)C(C)C [Agent 1] ({C16 diacid-AEEA-AEEA}-KKAKNIVLLKGLEVINDWHFC[dR]R[dR]G[dR]K[dK]R[dR]C-NH2; disulfide 21-31)
[1]
  Response Index (RI): 0.294
  percentage antigenicity: 22.73%
[2]
  metabolic stability in fresh blood (half-life) compared to Agent 2 and Agent 3: better stability; also recorded: considerably reduces the metabolism
